The subject of series [1] is global DNA methylation (5-methylcytosine). The series can be described thus: Global DNA methylation (5-methylcytosine) LC-MS/MS assay in SKM-1 tumor and mouse bone marrow. Type of series: in vivo. As for the experimental part: (§1) SKM-1 cells (3.8×10^6) suspended in 50% Matrigel (BD Biosciences)/50% Dulbecco's phosphate-buffered saline (DPBS) were implanted in 8-11 week old female NOD.CB17-Prkdc1NCrCrl mice. Tumors were measured with digital calipers, and stratified block randomized according to tumor size (P value >0.9085) into treatment groups with average tumor volumes of 219 or 1076 mm^3 for efficacy or PK/PD studies respectively. GSK4172239A was formulated weekly in Sterile water. Mice were measured twice weekly for body weight and tumor size. Dosing started on the day after randomization. Animals were dosed twice daily (BID) via oral gavage (PO) with Example 1 at 22, 67, or 200 mg/kg. A maximal tumor burden of 2,500 mm^3 for two consecutive measurements was not exceeded during the studies. For the PK/PD study, tumor, blood, and bone marrow were collected two hours following the 20th dose (10 days). For PK, blood was mixed 50:50 with water while tumor was homogenized (Omni hand-held homogenizer) in sterile water at a 1:4 dilution. Both samples were precipitated with acetonitrile, and concentrations of Example 4 were determined by HPLC—MS/MS (Waters Acquity uPLC, Sciex API5000). SKM-1 tumor and mouse bone marrow samples were assessed using a global DNA methylation (5-methylcytosine) LC-MS/MS assay. […] An HPLC—MS/MS method was optimized to quantify 2′-deoxycytidine and 5-methyl-2′-deoxycytidine. […] Concentrations of 2′-deoxycytidine and 5-methyl-2′-deoxycytidine were determined using standard curves generated from pure 2′-deoxycytidine (Sigma-Aldrich) and 5-methyl-2′-deoxycytidine (Santa Cruz Biotechnology). […]
(§2) Example 1 was evaluated in immunocompromised mice bearing subcutaneous SKM-1 human AML (acute myeloid leukemia) xenografts. […] In addition, the mechanistic consequence of inhibiting DNMT1, a decrease in DNA methylation, was assessed globally using a LC-MS/MS-based 5-methylcytosine assay. […] In a subsequent study, to examine anti-tumor efficacy, tumor volume was measured (n=10 animals per group) twice weekly for 4 weeks while on treatment.

Series [2] concerns SKM-1 human AML (acute myeloid leukemia) xenografts. The series can be described thus: Anti-tumor efficacy in subcutaneous SKM-1 human AML xenografts. Type of series: in vivo, mouse. As for the experimental part: as §1, §2
The nature of series [3]: physchem. Particulars: FaSSIF buffer, pH 6.5, fassif, thermodynamic from solid.
Experimental: Solubility of Solid Compounds in Fasted Simulated Intestinal Fluid
The solubility of solid compounds in Fasted Simulated Intestinal Fluid (FaSSIF) was determined at pH 6.5 after 4 hour equilibration at room temperature (using procedures described in Sou, T.; Bergström, C. A. S. Automated assays for thermodynamic (equilibrium) solubility determination. Drug Discovery Today: Technologies 2018, 27, 11-19). 1 ml of FaSSIF buffer (3 mM Sodium taurocholate, 0.75 mM lecithin in sodium phosphate buffer at pH6.5) was added to manually weighed 1 mg of solid compound in a 4 ml vial. The resulting suspension was shaken at 900 rpm for 4 hours at room temperature and then transferred to a Multiscreen HTS, 96-well solubility filter plate to separate the residual solid and the filtrate. Quantification of the compound concentration in the filtrate was performed by HPLC-UV using single point calibration of a known concentration of the compound in DMSO. […] The dynamic range of the assay was 1-1000 μg/ml.
Series [4] in a line: Drug exposure in blood and tumor of mice bearing SKM-1 xenografts (PK/PD study). It counts as in vivo, mouse. The conditions noted are these: 22, 67 or 200 mg/kg BID PO; blood and tumor two hours following the 20th dose. As for the experimental part: as §1, with “A maximal tumor burden of 2,500 mm^3 for two consecutive measurements was not exceeded during the studies. For the PK/PD study, tumor, blood, and bone marrow were collected two hours following the 20th dose (10 days). For PK, blood was mixed 50:50 with water while tumor was homogenized (Omni hand-held homogenizer) in sterile water at a 1:4 dilution.” left out
Example 1 was evaluated in immunocompromised mice bearing subcutaneous SKM-1 human AML (acute myeloid leukemia) xenografts. […]

The target in series [5] is Full-length human DNMT1 (Homo sapiens (Human), UniProt P26358). The series can be described thus: DNMT1 Scintillation Proximity Assay (SPA) - Assay A. Type of series: biochemical. The conditions noted are these: footnote a: DNMT1 full length. As for the experimental part:
DNMT1 Scintillation Proximity Assay (SPA)—Assay A (Full-Length Human DNMT1)
This assay used Scintillation Proximity technology in a signal increase format to evaluate the potency of compounds. Full-length human DNMT1, hemi-methylated DNA duplex*, and tritiated SAM were utilized to monitor activity. Assay plate creation consisted of the following parameters: 500 nL of an 11 pt, 3-fold serial dilution of compound was stamped into a 96 well Costar plate (#3884). Assay buffer mix was made on the day of assay consisting of: 20 mM Tris pH 7.5, 1 mM DTT, 1 mM EDTA, and 5% glycerol. A 2× enzyme mix was then prepared consisting of 30 nM DNMT1 protein (full length human DNMT, made in house) in assay buffer. The 2× substrate mix was made last, and consisted of 160 nM 40mer hemi-methylated DNA*, 0.48 μM ^3H-SAM, and 2.92 μM cold SAM in assay buffer (^3H-SAM is added last). The quench (1 mM SAH) was made in bulk and frozen at −20 until the time of use. Ten uL of the 2× substrate mix was added to the entire plate using a multichannel electronic pipette. Plate was shaken for at least 10s between additions to ensure mixing. Next, 20 uL of 2× quench mix was added to column 12 using a multichannel pipette (shake plate). Using a multichannel electronic pipette, 10 uL of 2× enzyme mix was added to the full plate starting with column […] (column 12 last to avoid pre-quench carryover). Plates were incubated on the shaker for 30 minutes with the plate covered. At the end of the incubation period, 20 uL of quench mix were added to all wells except column 12 (shake plate) followed by the addition of 20 uL of 3 mg/mL PerkinElmer PEI PVT SPA Beads (Cat. #RPNQ0097) diluted in DNAse free water and allowed to shake for at least 30 minutes. Plates were sealed with a clear seal and centrifuged at 500 rpm for 1 min. Plates were read on a MicroBeta (Perkin Elmer, read for ^3H (1 min/well).
Microsoft Excel was used to analyze the data up to Vi/Vo and GraFit was used to fit the data. Responses were normalized to the uninhibited (DMSO) and pre-quenched controls within each plate. Dose-response curves were analyzed using a three-parameter logistic fit with Ymin constrained to 0 and results were expressed as IC50 values.
Final assay conditions: 20 mM Tris (Hampton Research—HR-937-06), pH 7.5, 1 mM DTT (Invitrogen—P2325), 1 mM EDTA (Invitrogen—AM9260G), 5% Glycerol (Teknova—G1796), 0.02% Pluronic F127 (Life Technologies—P6866), 15 nM DNMT1 (full length human DNMT1—GSK made in-house), 240 nM ^3H-SAM (PerkinElmer—NET155H001MC), 1460 nM cold SAM (New England Biolabs—B9003S) and 80 nM 40-mer hemi-methylated DNA Oligonucleotide (Integrated DNA Technologies—custom), 1 mM SAH (Sigma A9384), and 1 mg/mL PEI PVT SPA Beads (Perkin Elmer RPNQ0097) resuspended in water.

The results in this text go back to patent publication US11771711B2, “Substituted pyridines as DNMT1 inhibitors” (GlaxoSmithKline Intellectual Property Development Limited, priority 2021, dated 2023).

Where only a bound is given, the exact number is not on record here.

Chain of Full-length human DNMT1 (P26358 whole entry): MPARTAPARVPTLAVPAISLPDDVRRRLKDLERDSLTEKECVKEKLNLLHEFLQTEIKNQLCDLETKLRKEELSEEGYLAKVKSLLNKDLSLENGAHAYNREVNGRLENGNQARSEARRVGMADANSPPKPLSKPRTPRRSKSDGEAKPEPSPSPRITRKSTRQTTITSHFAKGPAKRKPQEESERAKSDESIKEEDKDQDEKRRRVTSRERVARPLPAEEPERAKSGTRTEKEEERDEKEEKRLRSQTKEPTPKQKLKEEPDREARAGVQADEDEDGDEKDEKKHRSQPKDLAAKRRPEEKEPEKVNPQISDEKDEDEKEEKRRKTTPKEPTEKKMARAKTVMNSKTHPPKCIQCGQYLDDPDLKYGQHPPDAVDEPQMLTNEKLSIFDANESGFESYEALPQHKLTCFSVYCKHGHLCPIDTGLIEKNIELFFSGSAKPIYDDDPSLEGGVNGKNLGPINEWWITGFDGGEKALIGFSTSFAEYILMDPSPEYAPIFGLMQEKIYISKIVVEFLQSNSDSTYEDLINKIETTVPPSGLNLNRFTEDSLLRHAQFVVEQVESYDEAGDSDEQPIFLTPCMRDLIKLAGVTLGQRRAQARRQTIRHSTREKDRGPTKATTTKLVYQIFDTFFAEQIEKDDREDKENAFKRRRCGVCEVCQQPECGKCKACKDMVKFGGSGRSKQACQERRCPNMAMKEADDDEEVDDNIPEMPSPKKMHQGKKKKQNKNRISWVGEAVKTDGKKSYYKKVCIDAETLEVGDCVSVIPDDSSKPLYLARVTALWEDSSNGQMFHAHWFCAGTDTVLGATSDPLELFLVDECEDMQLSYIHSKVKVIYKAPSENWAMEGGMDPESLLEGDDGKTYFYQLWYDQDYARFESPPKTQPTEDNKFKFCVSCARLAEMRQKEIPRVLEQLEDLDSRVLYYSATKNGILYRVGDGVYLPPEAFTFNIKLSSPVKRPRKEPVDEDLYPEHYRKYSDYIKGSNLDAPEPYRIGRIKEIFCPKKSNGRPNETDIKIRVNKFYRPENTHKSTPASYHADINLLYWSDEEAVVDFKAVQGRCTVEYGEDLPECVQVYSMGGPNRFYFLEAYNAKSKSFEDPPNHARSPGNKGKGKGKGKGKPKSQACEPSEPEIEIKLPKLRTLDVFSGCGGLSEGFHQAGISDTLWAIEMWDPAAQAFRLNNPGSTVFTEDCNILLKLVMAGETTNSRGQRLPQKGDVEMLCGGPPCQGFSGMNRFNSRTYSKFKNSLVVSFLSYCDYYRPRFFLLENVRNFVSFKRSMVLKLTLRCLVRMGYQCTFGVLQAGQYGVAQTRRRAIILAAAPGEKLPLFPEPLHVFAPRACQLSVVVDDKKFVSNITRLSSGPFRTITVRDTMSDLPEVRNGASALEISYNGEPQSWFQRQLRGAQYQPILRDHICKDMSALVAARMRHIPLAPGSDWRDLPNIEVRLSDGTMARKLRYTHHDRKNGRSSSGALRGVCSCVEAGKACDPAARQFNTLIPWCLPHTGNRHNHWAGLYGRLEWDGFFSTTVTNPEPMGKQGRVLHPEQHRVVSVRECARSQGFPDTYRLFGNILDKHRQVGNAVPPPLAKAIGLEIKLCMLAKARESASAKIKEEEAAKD

Take `CCc1c(C#N)c(S[C@@H](C(=O)NP(=O)(O)O)c2ccc(OS(C)(=O)=O)cc2)nc(N(C)C)c1C#N` [Example 1, (R)-(2-((3,5-dicyano-6-(dimethylamino)-4-ethylpyridin-2-yl)thio)-2-(4-((methylsulfonyl)oxy)phenyl)acetyl)phosphoramidic acid]: in series [1] (22, 67 or 200 mg/kg BID PO, 10 days), the “global DNA methylation in comparison to vehicle” value is reported as “reduced at all doses”. Moreover, the “maximal change (reduction) in global DNA methylation in the tumor vs vehicle” value in series [1] (SKM-1 tumor, 200 mg/kg BID PO, two hours following the 20th dose (10 days)) is 49%. Moreover, the “maximal change (reduction) in global DNA methylation in the bone marrow vs vehicle” value in series [1] (mouse bone marrow, 200 mg/kg BID PO, two hours following the 20th dose (10 days)) worked out at 47%. Besides, in series [2] (22 mg/kg BID PO, vs vehicle at day 22), the tumor growth inhibition is on record as 35%. Besides, the tumor response result in series [2] (200 mg/kg BID PO, vs vehicle at day 22) was “marked regression”. In addition, in series [2] (22, 67 or 200 mg/kg BID PO, measured twice weekly for 4 weeks), the tumor volume result is “dose-dependent reduction”. The solubility at 4 h in series [3] was > 1000 µg/mL. Moreover, the “drug exposure (measured as the racemic active moiety Example 4)” value in series [4] is “dose-proportional and roughly equivalent in blood and tumor”. Moreover, 16.1 µM corresponded to half-maximal inhibition in series [5] (IC50).
